According to US20260078119A1, “DEGRADER COMPOUNDS AND USES THEREOF” (Bristol-Myers Squibb Company, priority 2024, published 2026):

Assays:
CAL-51 cells = experiment: CAL-51 Cell Proliferation Assay; format: cell-based; settings: for EC50: Homo sapiens, 120 hours incubation, 10-point dose response, 4-fold dilutions starting at 10 μM, Cell-Titer-Glo, read-out: CAL-51 Prolif EC50; for CAL-51 Prolif Ymin: minimal percent of DMSO control observed in the concentrations tested (Ymin-obs), 120 hours
Text: CAL-51 cells were obtained from Bristol Myers Squibb internal cell banks (originally sourced from DSMZ-German Collection of Microorganisms and Cell Cultures GmbH, Germany) and cultured in RPMI complete media (RPMI-1640, 10% Fetal Bovine serum, 1× Antibiotic-Antimycotic, and 1× Non-Essential Amino Acids). Compounds were dispensed into 384-well plates using an acoustic dispenser (Beckman Coulter Life Sciences, Carlsbad, CA) in duplicate with 14 compounds on each plate. For each compound, a 10-point dose response was printed at 4-fold dilutions starting at 10 μM. The DMSO concentration was kept constant for a final assay concentration of 0.1% per well assuming 50 uL final media volume. Compound plates were sealed and frozen at −20° C. until use.
For each assay batch, compound plates were thawed and allowed to reach room temperature, and cells were seeded at 350 cells per well in 50 μl complete RPMI media. After 120 hours of incubation at 37° C. and 5% CO2, cells were lysed by addition of 25 μL of Cell-Titer-Glo Reagent (Promega Corporation, Madison, WI), as per manufacturer's instructions, protected from light, shaken for 20 minutes, and total luminescence read by a CLARIOstar Plus plate reader (BMG LabTech, Cary, NC). Total luminescence signal is linearly correlated with cell number remaining in the well.
Luminescence data was processed per plate by subtracting reagent-only “blank” well luminescence from all measured values and calculating a percent of DMSO control value for each treatment well. Then, to determine the half-maximal effective concentration (EC50) values for cell growth inhibition, a four parameter logistic model was fit to the data for each DMSO-normalized compound: Sigmoidal Dose-Response Model: (FIT=(A+((B−A)/1+((C/x)^D)))) where C is the inflection point (EC50), D is the Hill slope, and A and B are the low and high limits of the fit respectively. The lower limit of the fit (value A) is referred to as Ymin-calculated. The minimal percent of DMSO control that is observed in the concentrations tested for each compound is labeled as “Ymin-obs”, and was recorded and reported in the tables. Sigmoidal fit curves were processed and evaluated using Dotmatics Atlas (Insightful Science, LLC, Boston, MA).

FAK = biological target: T1, FAK (Homo sapiens, UniProt Q05397); experiment: FAK-HiBiT Degradation Assay; format: cell-based; settings: for DC50: JHH-4-FAK-HiBiT clone d01 cells, two hours incubation, 10-point dose response, 3-fold dilution starting at 1 μM, Nano-Glo HiBiT luminescence, read-out: FAK HiBiT EC50; for FAK HiBiT Ymin: lower limit of the four parameter fit (value A), Ymax derived using DMSO control, JHH-4-FAK-HiBiT cells, two hours
T1 construct: homozygous knock-in of a HiBiT tag (Promega Corporation, Madison, WI) to the C-terminus of the FAK gene in its natural genomic locus; endogenous in cells; host or cells: JHH-4-FAK-HiBiT clone d01 (CRISPR-Cas9 knock-in at the endogenous locus)
Method in brief: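 JHH-4 cells with homozygous CRISPR knock-in of C-terminal HiBiT on endogenous FAK, treated 2 h at 37 °C with compounds in 10-point 3-fold series from 1 μM. HiBiT lytic luminescence read; EC50 from four-parameter logistic fit, Ymax set by DMSO control, Ymin as lower fit limit.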

T1 sequence (Q05397 whole entry): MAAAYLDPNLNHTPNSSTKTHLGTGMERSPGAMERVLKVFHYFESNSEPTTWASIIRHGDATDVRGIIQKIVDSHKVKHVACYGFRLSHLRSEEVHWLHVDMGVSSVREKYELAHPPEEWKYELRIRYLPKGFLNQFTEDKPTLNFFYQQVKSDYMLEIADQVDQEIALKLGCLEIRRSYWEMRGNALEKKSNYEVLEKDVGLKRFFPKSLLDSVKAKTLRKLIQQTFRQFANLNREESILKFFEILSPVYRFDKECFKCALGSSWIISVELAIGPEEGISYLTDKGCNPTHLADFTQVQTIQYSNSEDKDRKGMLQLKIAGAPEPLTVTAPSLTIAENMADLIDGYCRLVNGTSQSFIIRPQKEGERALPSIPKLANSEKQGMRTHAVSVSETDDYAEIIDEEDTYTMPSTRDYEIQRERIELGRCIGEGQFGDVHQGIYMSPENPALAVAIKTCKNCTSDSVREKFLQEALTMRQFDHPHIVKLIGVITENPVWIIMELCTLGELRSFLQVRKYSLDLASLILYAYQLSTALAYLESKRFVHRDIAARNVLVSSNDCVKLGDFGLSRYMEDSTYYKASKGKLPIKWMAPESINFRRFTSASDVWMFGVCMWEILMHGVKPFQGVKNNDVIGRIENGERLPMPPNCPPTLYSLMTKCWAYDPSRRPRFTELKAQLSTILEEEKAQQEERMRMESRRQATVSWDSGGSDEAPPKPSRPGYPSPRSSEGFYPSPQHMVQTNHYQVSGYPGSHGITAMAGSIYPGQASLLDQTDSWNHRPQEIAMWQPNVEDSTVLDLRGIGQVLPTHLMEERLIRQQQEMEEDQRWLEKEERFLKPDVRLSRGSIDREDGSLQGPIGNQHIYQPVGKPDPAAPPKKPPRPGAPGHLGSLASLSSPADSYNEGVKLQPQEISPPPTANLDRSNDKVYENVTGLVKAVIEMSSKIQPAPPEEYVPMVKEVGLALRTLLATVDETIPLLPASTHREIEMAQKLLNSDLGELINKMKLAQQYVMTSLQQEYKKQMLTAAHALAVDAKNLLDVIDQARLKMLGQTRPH

SMILES: Cc1nc2c(-c3ncc(C(F)(F)F)cc3Cl)cc(N3CC(F)C3)nc2n1Cc1ccc2c(c1)CN(C1CCC(=O)NC1=O)C2=O (stereo not shown) [Example 21, 3-(5-((7-(3-chloro-5-(trifluoromethyl)pyridin-2-yl)-5-(3-fluoroazetidin-1-yl)-2-methyl-3H-imidazo[4,5-b]pyridin-3-yl)methyl)-1-oxoisoindolin-2-yl)piperidine-2,6-dione]
- EC50 (CAL-51 cells): 910 pM
- CAL-51 Prolif Ymin (CAL-51 cells): 23.08
- DC50 (FAK): 1540 pM
- FAK HiBiT Ymin (FAK): 9.84

SMILES: O=C1CCC(N2Cc3cc(Cn4cnc5c(-c6ccc(F)cc6F)cc(N6CC(F)C6)nc54)ccc3C2=O)C(=O)N1 (stereo not shown) [Example 22, 3-(5-((7-(2,4-difluorophenyl)-5-(3-fluoroazetidin-1-yl)-3H-imidazo[4,5-b]pyridin-3-yl)methyl)-1-oxoisoindolin-2-yl)piperidine-2,6-dione]
- EC50 (CAL-51 cells): 390 pM
- CAL-51 Prolif Ymin (CAL-51 cells): 22.20
- DC50 (FAK): 680 pM
- FAK HiBiT Ymin (FAK): 10.53

SMILES: Cc1nc2c(-c3ccc(F)cc3F)cc(N3CC(F)C3)nc2n1Cc1ccc2c(c1)CN(C1CCC(=O)NC1=O)C2=O (stereo not shown) [Example 23, 3-(5-((7-(2,4-difluorophenyl)-5-(3-fluoroazetidin-1-yl)-2-methyl-3H-imidazo[4,5-b]pyridin-3-yl)methyl)-1-oxoisoindolin-2-yl)piperidine-2,6-dione]
- EC50 (CAL-51 cells): 620 pM
- CAL-51 Prolif Ymin (CAL-51 cells): 20.44
- DC50 (FAK): 1030 pM
- FAK HiBiT Ymin (FAK): 7.69

SMILES: Cc1nc2c(-c3ncc(F)cc3Cl)cc(N3CC(F)C3)nc2n1Cc1ccc2c(c1)CN(C1CCC(=O)NC1=O)C2=O (stereo not shown) [Example 24, 3-(5-((7-(3-chloro-5-fluoropyridin-2-yl)-5-(3-fluoroazetidin-1-yl)-2-methyl-3H-imidazo[4,5-b]pyridin-3-yl)methyl)-1-oxoisoindolin-2-yl)piperidine-2,6-dione]
- EC50 (CAL-51 cells): 4050 pM
- CAL-51 Prolif Ymin (CAL-51 cells): 23.72
- DC50 (FAK): 29600 pM
- FAK HiBiT Ymin (FAK): 5.76

SMILES: O=C1CCC(N2Cc3cc(Cn4cnc5c(-c6ncc(F)cc6Cl)cc(N6CC(F)C6)nc54)ccc3C2=O)C(=O)N1 (stereo not shown) [Example 25, 3-(5-((7-(3-chloro-5-fluoropyridin-2-yl)-5-(3-fluoroazetidin-1-yl)-3H-imidazo[4,5-b]pyridin-3-yl)methyl)-1-oxoisoindolin-2-yl)piperidine-2,6-dione]
- EC50 (CAL-51 cells): 146000 pM
- CAL-51 Prolif Ymin (CAL-51 cells): 46.08
- DC50 (FAK): 21100 pM
- FAK HiBiT Ymin (FAK): 5.97

SMILES: O=C1CCC(N2Cc3cc(Cn4ncc5c(-c6ncc(C(F)(F)F)cc6Cl)cc(N6CC(F)C6)cc54)ccc3C2=O)C(=O)N1 (stereo not shown) [Example 26, 3-(5-((4-(3-chloro-5-(trifluoromethyl)pyridin-2-yl)-6-(3-fluoroazetidin-1-yl)-1H-indazol-1-yl)methyl)-1-oxoisoindolin-2-yl)piperidine-2,6-dione]
- EC50 (CAL-51 cells): 2320 pM
- CAL-51 Prolif Ymin (CAL-51 cells): 24.69
- DC50 (FAK): 8500 pM
- FAK HiBiT Ymin (FAK): 11.53

SMILES: O=C1CC[C@H](N2Cc3cc(Cn4ccc5c(-c6ncc(C(F)(F)F)cc6Cl)nc(N6CC(F)C6)nc54)ccc3C2=O)C(=O)N1 [Example 28, (S)-3-(5-((4-(3-chloro-5-(trifluoromethyl)pyridin-2-yl)-2-(3-fluoroazetidin-1-yl)-7H-pyrrolo[2,3-d]pyrimidin-7-yl)methyl)-1-oxoisoindolin-2-yl)piperidine-2,6-dione]
- EC50 (CAL-51 cells): 450 pM
- CAL-51 Prolif Ymin (CAL-51 cells): 25.69
- DC50 (FAK): 380 pM
- FAK HiBiT Ymin (FAK): 7.63

SMILES: Cc1cc(C(F)(F)F)cnc1-c1cc(N2CC(F)C2)nc2c1cnn2Cc1ccc2c(c1)CN(C1CCC(=O)NC1=O)C2=O (stereo not shown) [Example 29, 3-(5-{[6-(3-fluoroazetidin-1-yl)-4-[3-methyl-5-(trifluoromethyl)pyridin-2-yl]-1H-pyrazolo[3,4-b]pyridin-1-yl]methyl}-1-oxo-2,3-dihydro-1H-isoindol-2-yl)piperidine-2,6-dione]
- EC50 (CAL-51 cells): 1230 pM
- CAL-51 Prolif Ymin (CAL-51 cells): 30.94
- DC50 (FAK): 710 pM
- FAK HiBiT Ymin (FAK): 8.83

SMILES: O=C1CC[C@H](N2Cc3cc(Cn4ncc5c(-c6ccc(F)cc6F)cc(N6CC(F)C6)nc54)ccc3C2=O)C(=O)N1 [Example 30, (3S)-3-(5-{[4-(2,4-difluorophenyl)-6-(3-fluoroazetidin-1-yl)-1H-pyrazolo[3,4-b]pyridin-1-yl]methyl}-1-oxo-2,3-dihydro-1H-isoindol-2-yl)piperidine-2,6-dione]
- EC50 (CAL-51 cells): 770 pM
- CAL-51 Prolif Ymin (CAL-51 cells): 26.67
- DC50 (FAK): 720 pM
- FAK HiBiT Ymin (FAK): 7.40

SMILES: O=C1CCC(N2Cc3cc(Cn4ncc5c(-c6ncc(F)cc6Cl)c(F)c(N6CC(F)C6)nc54)ccc3C2=O)C(=O)N1 (stereo not shown) [Example 31, 3-(5-{[4-(3-chloro-5-fluoropyridin-2-yl)-5-fluoro-6-(3-fluoroazetidin-1-yl)-1H-pyrazolo[3,4-b]pyridin-1-yl]methyl}-1-oxo-2,3-dihydro-1H-isoindol-2-yl)piperidine-2,6-dione]
- EC50 (CAL-51 cells): 3890 pM
- CAL-51 Prolif Ymin (CAL-51 cells): 34.80
- DC50 (FAK): 760 pM
- FAK HiBiT Ymin (FAK): 8.92

SMILES: CCOc1cnc(-c2cc(N3CC(F)C3)nc3c2cnn3Cc2ccc3c(c2)CN([C@H]2CCC(=O)NC2=O)C3=O)c(C(F)(F)F)c1 [Example 32, (3S)-3-[5-({4-[5-ethoxy-3-(trifluoromethyl)pyridin-2-yl]-6-(3-fluoroazetidin-1-yl)-1H-pyrazolo[3,4-b]pyridin-1-yl}methyl)-1-oxo-2,3-dihydro-1H-isoindol-2-yl]piperidine-2,6-dione]
- EC50 (CAL-51 cells): 440 pM
- CAL-51 Prolif Ymin (CAL-51 cells): 9.16
- DC50 (FAK): 820 pM
- FAK HiBiT Ymin (FAK): 9.44

SMILES: O=C1CCC(N2Cc3cc(Cn4ncc5c(-c6ncc(C(F)(F)F)cc6Cl)cc(N6CC(F)C6)nc54)cc(F)c3C2=O)C(=O)N1 (stereo not shown) [Example 33, 3-[5-({4-[3-chloro-5-(trifluoromethyl)pyridin-2-yl]-6-(3-fluoroazetidin-1-yl)-1H-pyrazolo[3,4-b]pyridin-1-yl}methyl)-7-fluoro-1-oxo-2,3-dihydro-1H-isoindol-2-yl]piperidine-2,6-dione]
- EC50 (CAL-51 cells): 510 pM
- CAL-51 Prolif Ymin (CAL-51 cells): 26.78
- DC50 (FAK): 910 pM
- FAK HiBiT Ymin (FAK): 5.36

SMILES: O=C1CCC(N2Cc3cc(Cn4ncc5c(-c6ncc(C(F)(F)F)cc6Cl)cc(N6CC(F)C6)nc54)ccc3C2=O)C(=O)N1 (stereo not shown) [Example 34, 3-[5-({4-[3-chloro-5-(trifluoromethyl)pyridin-2-yl]-6-(3-fluoroazetidin-1-yl)-1H-pyrazolo[3,4-b]pyridin-1-yl}methyl)-1-oxo-2,3-dihydro-1H-isoindol-2-yl]piperidine-2,6-dione]
- EC50 (CAL-51 cells): 1080 pM
- CAL-51 Prolif Ymin (CAL-51 cells): 26.10
- DC50 (FAK): 910 pM
- FAK HiBiT Ymin (FAK): 8.98

SMILES: O=C1CCC(N2Cc3cc(Cn4ncc5c(-c6ncc(Cl)cc6Cl)cc(N6CC(F)C6)nc54)ccc3C2=O)C(=O)N1 (stereo not shown) [Example 35, 3-(5-{[4-(3,5-dichloropyridin-2-yl)-6-(3-fluoroazetidin-1-yl)-1H-pyrazolo[3,4-b]pyridin-1-yl]methyl}-1-oxo-2,3-dihydro-1H-isoindol-2-yl)piperidine-2,6-dione]
- EC50 (CAL-51 cells): 590 pM
- CAL-51 Prolif Ymin (CAL-51 cells): 21.28
- DC50 (FAK): 970 pM
- FAK HiBiT Ymin (FAK): 10.02

SMILES: O=C1CCC(N2Cc3cc(Cn4ncc5c(-c6ncccc6Cl)c(F)c(N6CC(F)C6)nc54)ccc3C2=O)C(=O)N1 (stereo not shown) [Example 36, 3-(5-{[4-(3-chloropyridin-2-yl)-5-fluoro-6-(3-fluoroazetidin-1-yl)-1H-pyrazolo[3,4-b]pyridin-1-yl]methyl}-1-oxo-2,3-dihydro-1H-isoindol-2-yl)piperidine-2,6-dione]
- EC50 (CAL-51 cells): 500 pM
- CAL-51 Prolif Ymin (CAL-51 cells): 24.38
- DC50 (FAK): 980 pM
- FAK HiBiT Ymin (FAK): 8.36

SMILES: Cc1cc(Cl)cnc1-c1c(F)c(N2CC(F)C2)nc2c1cnn2Cc1ccc2c(c1)CN(C1CCC(=O)NC1=O)C2=O (stereo not shown) [Example 37, 3-(5-{[4-(5-chloro-3-methylpyridin-2-yl)-5-fluoro-6-(3-fluoroazetidin-1-yl)-1H-pyrazolo[3,4-b]pyridin-1-yl]methyl}-1-oxo-2,3-dihydro-1H-isoindol-2-yl)piperidine-2,6-dione]
- EC50 (CAL-51 cells): 600 pM
- CAL-51 Prolif Ymin (CAL-51 cells): 19.81
- DC50 (FAK): 980 pM
- FAK HiBiT Ymin (FAK): 7.33
